# According to patent EP0165492B1, “Process for manufacturing preparations promoting wound healing, and such preparations” (BERLIN-CHEMIE Aktiengesellschaft, priority 1984, dated 1992):
# Tests used:
# Kapillaren = details: conclusion from morphometry (Tables 11 and 12); controls = 100 %
# Excerpt: Mit Hilfe des Punktzählverfahrens (BUNTROCK et al: Exper. Pathol. 21 (1982) 62-67) wurden die prozentualen Volumenanteile der Kapillaren (VVCAP), unterteilt nach Endothelzellen (VVEC), Endothelzellkerne (VVNEC), Endothelsellzytoplasma (VVCYT) einerseits und Kapillarlumen (VVCAPL) andererseits bestimmt. Die Kontrollen wurden wiederum mit 100 % festgelegt.
# Die Ergebnisse sind in der Tabelle 12 dargestellt.
# Endothelzellen = details: versus rats treated with isotonic saline (= 100 %); treatment as in Example 1
# Procedure: Unter die Rückenhaut von 2 Monate alten Ratten mit einem Körpergewicht von 220 bis 270 g werden Polyvinylringe mit einem Basisdurchmesser von 19 mm unter sterilen Kautelen implantiert (Test nach RUDAS, modifiziert nach BECK, WIEGERS-HAUSEN und JUNG, Acta bio. med. Germ. 13, (1964)).
# Der Ring liegt auf der Fascis der Rückenmuskulatur. Am Operationstag werden je 1,0 ml sterile, isotone Kochsalzlösung (Kontrolle) bzw. die gleiche Menge an Kochsalzlösung mit den darin enthaltenen Wirkstoffen appliziert. Die Wunde der Rückenhaut über dem Ring wird danach verschlossen. Am 2. bzw. am 2., 4. und 6. Tag post operationem (p. op.) erfolgen nochmalige Injektionen durch die Haut in den Ring, wobei jeweils 0,2 ml sterile, isotone Kochsalzlösung mit jeweils 20 % der am Operationstag gegebenen Wirkstoffmenge appliziert werden. Im Fall der Kontrolle erfolgt eine Injektion von 0,2 ml Kochsalzlösung ohne Wirkstoff.
# Als Kontrolltiere dienten mit isotoner Kochsalzlösung behandelte Ratten, deren Zählwerte gleich 100 % gesetzt wurden. […] Das Vorgehen der Behandlung entspricht dem Beispiel 1.
# [1] = tested on: experimentell gesetzte Wunden; details: intraperitoneal, 20 mg/kg Ratte; cited from earlier work
# [2] = tested on: durch Zahnextraktion entstandene Wunden; details: local application (Salbe, Lutschtabletten); cited from earlier work
Substance,Angiogenese fördernde Wirkung (Kapillaren),Anzahl der Endothelzellkerne der Kapillaren (Endothelzellen),Wundheilung [1],Wundheilung [2]
N-4-Nitrobenzylocarbonyl-lysyl-Prolin-Hydrochlorid [Lys[Z(NO2)]-Pro·HCl],Angiogenese fördernde Wirkung,signifikante Zunahme,–,–
ß-Alanyl-L-Histidin [L-Carnosin],–,–,günstig beeinflussen,günstig beeinflussen
